For one data set, the system named is E.coli ATCC 259922. Description: Antimicrobial assay. It counts as cell-based, Escherichia coli. The note with it: CaMHB, 5 × 10^5 CFU mL^−1, 37 °C, 20 h, visual, duplicate.
A further data set concerns S. aureus ATCC 43300. Description: microbe, parasite or virus in culture. In kind it is cell-based, Staphylococcus aureus. The note with it: for Minimum inhibitory concentration: S. aureus ATCC 43300, CaMHB, 5 × 10^5 CFU mL^−1, 37 °C, 20 h, visual, duplicate.
The subject of another data set is B. subtilis ATCC 6051. Description: microbe, parasite or virus in culture. In kind it is cell-based, Bacillus subtilis. The note with it: for Minimum inhibitory concentration: B. subtilis ATCC 6051, CaMHB, 5 × 10^5 CFU mL^−1, 37 °C, 20 h, visual, duplicate.
In the next data set the test system is human red blood cells. Kind of data set: Hemolysis assay. It counts as cell-based.
The next data set deals with HEK293 cells. Kind of data set: Cytotoxicity assay. It counts as cell-based. The note with it: HEK293, 24 h at 37 °C, resazurin fluorescence; two independent experiments of duplicate assays (n = 2). On the technique in general: Alamar Blue is a resazurin reagent that responds to reducing activity.
For data set [1], the system named is Gram negative and Gram-positive bacterial pathogens. Kind of data set: Antimicrobial assay, summary over the bacterial panel. In kind it is cell-based. The note with it: range over both strains.

In brackets after ≈: the same amount, converted by molar mass. Several values for one entry are separate records, joined by “and”; a condition that tells them apart may be missing. Equal values may be shown once. Where a SMILES comes first, the peptide text is derived from it. Bridges are numbered along the chain shown (N, C = ends). Where no end group is shown, it is not given here. [ ]: non-standard residue; d: D form. The star is where a group is joined. X1 = CC[C@H](C)CCCCC(=O)*; Dab = NCC[C@H](N)C(=O)O

`CC[C@H](C)CCCCC(=O)N[C@@H](CCN)C(=O)N[C@H](C(=O)N[C@@H](CCN)C(=O)N[C@H]1CCNC(=O)[C@H]([C@@H](C)O)NC(=O)[C@H](CCN)NC(=O)[C@H](CCN)NC(=O)[C@H](CC(C)C)NC(=O)[C@@H](CC(C)C)NC(=O)[C@H](CCN)NC1=O)[C@@H](C)O` [Colistin, colistin, reference compound] (X1-[Dab]T[Dab][Dab][Dab][dL]L[Dab][Dab]T; lactam 4-C (inferred); N-terminus assumed) came in with a Minimum inhibitory concentration in the data set on E.coli ATCC 259922 of 0.02 to 0.11 µM.

With `CN[C@H](CC(C)C)C(=O)N[C@H]1C(=O)N[C@@H](CC(N)=O)C(=O)N[C@H]2C(=O)N[C@H]3C(=O)N[C@H](C(=O)N[C@H](C(=O)O)c4cc(O)cc(O)c4-c4cc3ccc4O)[C@H](O)c3ccc(c(Cl)c3)Oc3cc2cc(c3O[C@@H]2O[C@H](CO)[C@@H](O)[C@H](O)[C@H]2O[C@H]2C[C@](C)(N)[C@H](O)[C@H](C)O2)Oc2ccc(cc2Cl)[C@H]1O` [Vancomycin, vancomycin, reference compound], the MIC in the data set on S. aureus ATCC 43300 (Staphylococcus aureus, ATCC43300, 20 h, read-out: Minimum inhibitory concentration) is 0.69 to 1.38 µM (≈ 1 to 2 µg/mL); in the data set on B. subtilis ATCC 6051 (Bacillus subtilis, ATCC6051, 20 h, read-out: Minimum inhibitory concentration), 0.17 to 0.35 µM (≈ 0.246 to 0.507 µg/mL).

On to AGTKEWLNKAKDFIKEKGLGMLSAAANAALN [Nc3b], for which the Minimum inhibitory concentration in the data set on S. aureus ATCC 43300, with E.coli ATCC 259922 and in the data set with B. subtilis ATCC 6051 was above 40 µM throughout. Also, the “Hemolysis at fixed concentration” value in the data set on human red blood cells (100 μM peptide) and with human red blood cells (300 μM peptide) was “no hemolysis” throughout.

Take FLGALLKIGAKLLPSVVGLFKKKQQ [Na1b]: the Minimum inhibitory concentration in the data set on S. aureus ATCC 43300 is 0.3 to 5.9 µM; in the data set on E.coli ATCC 259922, 5.9 to 11.8 µM; in the data set with B. subtilis ATCC 6051, 0.18 to 2.9 µM. In the data set on HEK293 cells, the “Cytotoxicity (CC50), 50% death of HEK293 cells” value (“Cytotoxicity (CC50), 50% death” below) fell in the range of 4.5 to 5.9 µM.

As to FVKELWDKVKKMGSAAWSAAKGAFA [Nc2a], the figures for the Minimum inhibitory concentration in the data set with S. aureus ATCC 43300, with E.coli ATCC 259922 and with B. subtilis ATCC 6051 were above 40 µM, 11.7 to 46.9 µM and 5.9 to 11.8 µM, respectively. Besides, the “Hemolysis at fixed concentration” value in the data set on human red blood cells (100 μM peptide) is recorded as “no hemolysis”. Further, in the data set on HEK293 cells, the “Cytotoxicity (CC50), 50% death” value was > 40 µM and 48.2 to 56.9 µM.

Consider FWGAAAKMLGKALPGLISMFQKN [Nc1a], for which the Minimum inhibitory concentration is 2.9 to 5.9 µM in the data set with S. aureus ATCC 43300, 25.8 to 51.6 µM in the data set with E.coli ATCC 259922 and 1.48 to 5.9 µM in the data set on B. subtilis ATCC 6051. Further, in the data set on HEK293 cells, the “Cytotoxicity (CC50), 50% death” value lay within 12.6 to 13.5 µM. Further, the “MIC against Gram-positive bacteria (Staphylococcus aureus and B. subtilis)” value in data set [1] is 1.48 to 5.9 µM.

GWKDWLNKAKDFIKEKGPEILRAAANAAIN [Nc3a]: the Minimum inhibitory concentration in the data set with S. aureus ATCC 43300 was 23.7 to 47.4 µM; with E.coli ATCC 259922, 2.3 to 4.7 µM; with B. subtilis ATCC 6051, 1.48 to 2.9 µM. Moreover, the “Hemolysis at fixed concentration” value in the data set with human red blood cells (100 μM peptide) is on record as “no hemolysis”.

Values taken from PMC10167921 (Biochemical pharmacology, 2021).
